Data taken from patent publication US20230131899A1, “INHIBITORS OF MICROBIALLY INDUCED AMYLOID” (Axial Therapeutics, Inc., priority 2020, published 2023).
Like-named read-outs stand apart in the source and are kept apart here.

Target: T1, E. coli CsgA (Escherichia coli, UniProt P28307)
T1 construct: made in house; host or cells: E. coli NEB 3016 slyD::kan, pET11d
Experiment: In vitro ThioflavinT assay of CsgA aggregation (CsgA ThT Assay)
Type: biochemical
Details: for remaining activity at 25 µM: compound 25 μM
In short: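 Purified C-terminal His-tagged CsgA, monomerised by desalting and 30-kDa filtration, at 2-20 μM with 20-40 μM ThT in 50 mM potassium phosphate pH 7.3, 1% DMSO, compounds 3.125-200 uM; room temperature, fluorescence (ex 438/em 495 nm) read every 15 min. Background-subtracted signal expressed as percent inhibition versus vehicle at 6-6.5 or 8-9 h, or as percent control AUC.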

[1] = read-out: CsgA ThT Assay (10 μM CsgA) % Control AUC at 1005 minutes, 25 μM (activity range), CsgA 10 μM, black plates, 1005 minutes, class symbol
[2] = read-out: CsgA ThT Assay (10 μM CsgA) % Control AUC at 1005 minutes, 25 μM, mean AUC as % of DMSO control, CsgA 10 μM, black plates, 1005 minutes
[3] = read-out: CsgA ThT Assay (10 μM CsgA) % Control AUC at 1005 minutes, 100 μM (activity range), CsgA 10 μM, black plates, compound 100 μM, 1005 minutes, class symbol
[4] = read-out: CsgA ThT Assay (10 μM CsgA) % Control AUC at 1005 minutes, 100 μM, mean AUC as % of DMSO control, CsgA 10 μM, black plates, compound 100 μM, 1005 minutes
[5] = read-out: CsgA ThT Assay (2 μM CsgA) % Control Bmax 25 μM, activity range, class symbol, CsgA 2 μM, white plates
[6] = read-out: CsgA ThT Assay (2 μM CsgA) % Control Bmax 25 μM, mean Bmax as percentage of DMSO control, CsgA 2 μM, white plates
[7] = read-out: CsgA ThT Assay (2 μM CsgA) % Control Bmax 100 μM, activity range, class symbol, CsgA 2 μM, white plates, compound 100 μM
[8] = read-out: CsgA ThT Assay (2 μM CsgA) % Control Bmax 100 μM, mean Bmax as percentage of DMSO control, CsgA 2 μM, white plates, compound 100 μM

T1 sequence (P28307 23-151): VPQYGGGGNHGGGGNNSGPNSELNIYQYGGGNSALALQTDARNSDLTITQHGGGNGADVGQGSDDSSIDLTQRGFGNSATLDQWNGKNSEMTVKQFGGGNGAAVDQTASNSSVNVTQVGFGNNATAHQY

Row | SMILES | remaining activity at 25 µM [1] | remaining activity at 25 µM [2] | remaining activity at 100 µM [3] | remaining activity at 100 µM [4] | CsgA ThT Assay (10 μM CsgA) % Control AUC at 1005 minutes, 100 μM (mean AUC as % of DMSO control, CsgA 10 μM, black plates, compound 100 μM, 1005 minutes) | remaining activity at 25 µM [5] | remaining activity at 25 µM [6] | remaining activity at 100 µM [7] | remaining activity at 100 µM [8]
1 | CNC(=O)C1CN(C)S(=O)(=O)c2c(-c3cccc(C(F)(F)F)c3)c(Cc3cccc4ccccc34)cc(=O)n21 (centres unmarked) [Compound 031, N,2-dimethyl-8-(naphthalen-1-ylmethyl)-6-oxo-9-(3-(trifluoromethyl)phenyl)-3,4-dihydro-2H,6H-pyrido[1,2-e][1,2,5]thiadiazine-4-carboxamide 1,1-dioxide] | > 60% | 100% | > 60% | 99% |  |  |  |  | 
2 | CCCCCN1CC(C(=O)O)n2c(c(-c3cccc(C(F)(F)F)c3)c(Cc3cccc4ccccc34)cc2=O)S1(=O)=O (single isomer, unassigned) [Compound 025a, 8-(naphthalen-1-ylmethyl)-6-oxo-2-pentyl-9-(3-(trifluoromethyl)phenyl)-3,4-dihydro-2H,6H-pyrido[1,2-e][1,2,5]thiadiazine-4-carboxylic acid 1,1-dioxide] | 31 to 60% | 38% | > 60% |  | 143% |  |  |  | 
3 | COc1ccc(CN2CC(C(=O)O)n3c2c(-c2cccc(C(F)(F)F)c2)c(Cc2cccc4ccccc24)c(Cl)c3=O)cc1 (centres unmarked) [Compound 192, 6-chloro-1-(4-methoxybenzyl)-7-(naphthalen-1-ylmethyl)-5-oxo-8-(3-(trifluoromethyl)phenyl)-1,2,3,5-tetrahydroimidazo[1,2-a]pyridine-3-carboxylic acid] |  |  |  |  |  | > 60% | 87% | > 60% | 95%
4 | CCCN1CC(C(=O)O)n2c(c(-c3cccc(C(F)(F)F)c3)c(Cc3cccc4ccccc34)c(Cl)c2=O)S1(=O)=O (centres unmarked) [Compound 142, 7-chloro-8-(naphthalen-1-ylmethyl)-6-oxo-2-propyl-9-(3-(trifluoromethyl)phenyl)-3,4-dihydro-2H,6H-pyrido[1,2-e][1,2,5]thiadiazine-4-carboxylic acid 1,1-dioxide] |  |  |  |  |  | > 60% | 87% | > 60% | 121%
5 | Cn1c(=O)c2c(ncn2CCCCCN2CC(C(=O)O)n3c(c(-c4cccc(C(F)(F)F)c4)c(Cc4cccc5ccccc45)cc3=O)S2(=O)=O)n(C)c1=O (centres unmarked) [Compound 034, 2-(5-(1,3-dimethyl-2,6-dioxo-1,2,3,6-tetrahydro-7H-purin-7-yl)pentyl)-8-(naphthalen-1-ylmethyl)-6-oxo-9-(3-(trifluoromethyl)phenyl)-3,4-dihydro-2H,6H-pyrido[1,2-e][1,2,5]thiadiazine-4-carboxylic acid 1,1-dioxide] | > 60% | 62% | > 60% | 95% |  |  |  |  | 
6 | Cn1c(=O)c2c(nc(CCCCCN3CC(C(=O)O)n4c(c(-c5cccc(C(F)(F)F)c5)c(Cc5cccc6ccccc56)cc4=O)S3(=O)=O)n2C)n(C)c1=O (centres unmarked) [Compound 045, 8-(naphthalen-1-ylmethyl)-6-oxo-9-(3-(trifluoromethyl)phenyl)-2-(5-(1,3,7-trimethyl-2,6-dioxo-2,3,6,7-tetrahydro-1H-purin-8-yl)pentyl)-3,4-dihydro-2H,6H-pyrido[1,2-e][1,2,5]thiadiazine-4-carboxylic acid 1,1-dioxide] | 31 to 60% | 59% | 31 to 60% | 53% |  |  |  |  | 
7 | CCCN1CC(C(=O)O)n2c(c(-c3cccc(C(F)(F)F)c3)c(Cc3cccc4ccccc34)c(NC(=O)C(C)C)c2=O)S1(=O)=O (centres unmarked) [Compound 152, 7-isobutyramido-8-(naphthalen-1-ylmethyl)-6-oxo-2-propyl-9-(3-(trifluoromethyl)phenyl)-3,4-dihydro-2H,6H-pyrido[1,2-e][1,2,5]thiadiazine-4-carboxylic acid 1,1-dioxide] |  |  |  |  |  | > 60% | 90% | > 60% | 107%
8 | O=C(O)C1CN(Cc2ccccc2CO)c2c(-c3cccc(C(F)(F)F)c3)c(Cc3cccc4ccccc34)c(Cl)c(=O)n21 (centres unmarked) [Compound 181, 6-chloro-1-(2-(hydroxymethyl)benzyl)-7-(naphthalen-1-ylmethyl)-5-oxo-8-(3-(trifluoromethyl)phenyl)-1,2,3,5-tetrahydroimidazo[1,2-a]pyridine-3-carboxylic acid] |  |  |  |  |  | 31 to 60% | 57% | 31 to 60% | 40%
9 | O=C(O)C1CN(CC2CCOCC2)c2c(-c3cccc(C(F)(F)F)c3)c(Cc3cccc4ccccc34)c(Cl)c(=O)n21 (centres unmarked) [Compound 182, 6-chloro-7-(naphthalen-1-ylmethyl)-5-oxo-1-((tetrahydro-2H-pyran-4-yl)methyl)-8-(3-(trifluoromethyl)phenyl)-1,2,3,5-tetrahydroimidazo[1,2-a]pyridine-3-carboxylic acid] |  |  |  |  |  | > 60% | 68% | > 60% | 61%
10 | O=C(O)C1CN(CCc2ccccc2)c2c(-c3cccc(C(F)(F)F)c3)c(Cc3cccc4ccccc34)c(Cl)c(=O)n21 (centres unmarked) [Compound 178, 6-chloro-7-(naphthalen-1-ylmethyl)-5-oxo-1-phenethyl-8-(3-(trifluoromethyl)phenyl)-1,2,3,5-tetrahydroimidazo[1,2-a]pyridine-3-carboxylic acid] |  |  |  |  |  | 31 to 60% | 57% | < 10% | 9%
11 | O=C(O)C1CN(Cc2ccc(CO)cc2)c2c(-c3cccc(C(F)(F)F)c3)c(Cc3cccc4ccccc34)c(Cl)c(=O)n21 (centres unmarked) [Compound 170, 6-chloro-1-(4-(hydroxymethyl)benzyl)-7-(naphthalen-1-ylmethyl)-5-oxo-8-(3-(trifluoromethyl)phenyl)-1,2,3,5-tetrahydroimidazo[1,2-a]pyridine-3-carboxylic acid] |  |  |  |  |  | > 60% | 62% | 31 to 60% | 38%
12 | N#Cc1cccc(CN2CC(C(=O)O)n3c2c(-c2cccc(C(F)(F)F)c2)c(Cc2cccc4ccccc24)c(Cl)c3=O)c1 (centres unmarked) [Compound 168, 6-chloro-1-(3-cyanobenzyl)-7-(naphthalen-1-ylmethyl)-5-oxo-8-(3-(trifluoromethyl)phenyl)-1,2,3,5-tetrahydroimidazo[1,2-a]pyridine-3-carboxylic acid] |  |  |  |  |  | > 60% | 76% | 31 to 60% | 47%
13 | CN(C)C(=O)C1CN(C)S(=O)(=O)c2c(-c3cccc(C(F)(F)F)c3)c(Cc3cccc4ccccc34)cc(=O)n21 (centres unmarked) [Compound 032, N,N-2-trimethyl-8-(naphthalen-1-ylmethyl)-6-oxo-9-(3-(trifluoromethyl)phenyl)-3,4-dihydro-2H,6H-pyrido[1,2-e][1,2,5]thiadiazine-4-carboxamide 1,1-dioxide] | > 60% | 92% |  |  |  |  |  |  | 
14 | O=C(O)C1COc2c(-c3cccc(C(F)(F)F)c3)c(Cc3cccc4ccccc34)cc(=O)n21 (centres unmarked) [Compound 064, 7-(naphthalen-1-ylmethyl)-5-oxo-8-(3-(trifluoromethyl)phenyl)-2,3-dihydro-5H-oxazolo[3,2-a]pyridine-3-carboxylic acid] | 31 to 60% | 45% | 11 to 31% | 16% |  |  |  |  | 
15 | O=C(O)C1CN(CCCO)c2c(-c3cccc(C(F)(F)F)c3)c(Cc3cccc4ccccc34)c(Cl)c(=O)n21 (centres unmarked) [Compound 197, 6-chloro-1-(3-hydroxypropyl)-7-(naphthalen-1-ylmethyl)-5-oxo-8-(3-(trifluoromethyl)phenyl)-1,2,3,5-tetrahydroimidazo[1,2-a]pyridine-3-carboxylic acid] |  |  |  |  |  | > 60% | 86% | > 60% | 64%
16 | O=C(O)C1CSc2c(-c3cccc(C(F)(F)F)c3)c(Cc3cccc4ccccc34)c(CO)c(=O)n21 (centres unmarked) [Compound 057, 6-(hydroxymethyl)-7-(naphthalen-1-ylmethyl)-5-oxo-8-(3-(trifluoromethyl)phenyl)-2,3-dihydro-5H-thiazolo[3,2-a]pyridine-3-carboxylic acid] | 31 to 60% | 59% | 11 to 31% | 24% |  |  |  |  | 
